Here are results for 22 compounds from patent US20250197407A1 (Jazz Pharmaceuticals Ireland Limited, priority 2022, published 2025).

The structures appear in SMILES notation.

Sequence of SOS1/KRAS WT (Q07889 564-1049): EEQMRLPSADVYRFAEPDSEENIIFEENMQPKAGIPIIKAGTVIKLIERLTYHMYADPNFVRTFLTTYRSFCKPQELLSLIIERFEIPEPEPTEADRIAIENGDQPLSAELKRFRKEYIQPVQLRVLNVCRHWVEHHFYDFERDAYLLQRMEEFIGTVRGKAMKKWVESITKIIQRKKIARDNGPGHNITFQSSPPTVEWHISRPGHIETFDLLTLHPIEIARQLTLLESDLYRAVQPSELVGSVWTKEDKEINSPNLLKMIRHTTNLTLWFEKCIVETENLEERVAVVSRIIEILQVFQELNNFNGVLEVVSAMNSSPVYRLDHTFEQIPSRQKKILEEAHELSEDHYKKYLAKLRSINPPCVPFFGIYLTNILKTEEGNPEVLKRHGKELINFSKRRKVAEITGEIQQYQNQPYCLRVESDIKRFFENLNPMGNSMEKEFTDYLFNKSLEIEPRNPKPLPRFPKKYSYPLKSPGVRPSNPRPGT

In this experiment the target is SOS1/KRAS WT (Homo sapiens (Human), UniProt Q07889). The experiment can be described thus: SOS1/KRAS WT HTRF binding assay (FRET-based protein-protein interaction). As to conditions: inhibition of His6-SOS1 (aa564-1049, 40 nM) binding to GST-KRAS-WT (aa1-188, 40 nM); at least two independent replicates; read-out: SOS1/KRAS WT HTRF Binding assay pIC50 (converted). The source says:
The capacity of compounds to inhibit SOS1 binding to KRAS-WT (wild-type) was quantified using a FRET-based protein-protein interaction assay. The assay is based on the transfer of energy between two fluorophores, a donor and an acceptor, when in close proximity. In this instance, the donor is a Europium-conjugated α-GST antibody that binds to GST-tagged KRAS-WT, and the acceptor is an XL665-conjugated α-His 6 antibody that binds to His 6-tagged SOS1. Binding of SOS1 to KRAS-WT results in an increased fluorescent signal at emission wavelength of 665 nm which can be detected on the EnVision plate reader. Compounds that inhibit binding will reduce the 665 nm signal emitted. Recombinant KRAS-WT protein (40 nM; Human KRAS, aa1-188 recombinant protein with N-terminal GST-tag) and SOS1 protein (40 nM; Human SOS1 exchange domain, aa564-1049 with N-terminal 6His-tag) were mixed together in assay buffer (5 mM HEPES pH7.3, 150 mM NaCl, 10 mM EDTA, 5 mM MgCl2, 0.05% BSA, 0.0025% NP-40, 1 mM DTT and 100 mM KF) and incubated at room temperature with a dose response of compound in a 384-well low volume white plate and a final volume of 5 ul. After a 60 minute incubation, 5 ul of 4 nM anti-GST-Eu(K) (Cisbio, France) combined with 20 nM anti-6His-XL665 (Cisbio, France), diluted in assay buffer, was added to the plate. Following a further 4 hr incubation at room temperature, time-resolved fluorescence was measured on the EnVision plate reader. DMSO (0.05%) and 10 μM reference compound were used to generate the Max and Min assay signals, respectively. Data was analysed using a four-parameter logistic model to calculate IC50 values, with at least two independent replicates performed for each compound.
Data was analyzed using a four-parameter logistic model to calculate IC50 values, with at least two independent replicates performed for each compound.
A general note: TR-FRET usually uses a lanthanide donor and a delayed reading to cut background.
For `Cc1nnc(N[C@H](C)c2cccc(C(F)(F)F)c2)c2cc3c(cc12)OCC(=O)N3C` [Compound 23, 4,9-dimethyl-6-[[(1R)-1-[3-(trifluoromethyl)phenyl]ethyl]amino]pyridazino[4,5-g][1,4]benzoxazin-3-one], the IC50 was 0.0447 µM. In the case of `Cc1nnc(N[C@H](C)c2cccc(C(F)(F)F)c2)c2cc3c(cc12)OC1(CC1)C(=O)N3C(C)C` [Compound 25, 4′-isopropyl-9′-methyl-6′-[[(1R)-1-[3-(trifluoromethyl)phenyl]ethyl]amino]spiro[cyclopropane-1,2′-pyridazino[4,5-g][1,4]benzoxazine]-3′-one], the IC50 is 0.0631 µM. Consider `Cc1nnc(N[C@H](C)c2cccc(C(F)(F)CO)c2F)c2cc3c(cc12)n(C)c(=O)n3C(C)(C)C` [Compound 26, 3-tert-butyl-1,8-dimethyl-5-[[(1R)-1-[3-(1,1-difluoro-2-hydroxy-ethyl)-2-fluoro-phenyl]ethyl]amino]imidazo[4,5-g]phthalazin-2-one], for which the IC50 was 0.0145 µM. In the case of `Cc1nnc(N[C@H](C)c2cccc(C(F)F)c2F)c2cc3c(cc12)n(C)c(=O)n3C(C)(C)C` [Compound 27, 3-tert-butyl-1,8-dimethyl-5-[[(1R)-1-[3-(difluoromethyl)-2-fluoro-phenyl]ethyl]amino]imidazo[4,5-g]phthalazin-2-one], the IC50 was 0.00933 µM. For the compound `COCCn1c(=O)n(C)c2cc3c(C)nnc(N[C@H](C)c4cccc(C(F)F)c4F)c3cc21` [Compound 28, 3-(2-methoxyethyl)-1,8-dimethyl-5-[[(1R)-1-[3-(difluoromethyl)-2-fluoro-phenyl]ethyl]amino]imidazo[4,5-g]phthalazin-2-one], the IC50 is 0.0123 µM. In the case of `Cc1nnc(N[C@H](C)c2cccc(C(F)F)c2F)c2cc3c(cc12)OC(C)(C)C(=O)N3C` [Compound 30, 2,2,4,9-tetramethyl-6-[[(1R)-1-[3-(difluoromethyl)-2-fluoro-phenyl]ethyl]amino]pyridazino[4,5-g][1,4]benzoxazin-3-one] it was 0.0148 µM; in that of `Cc1nnc(N[C@H](C)c2cccc(C(F)F)c2F)c2cc3c(cc12)n(C)c(=O)n3C` [Compound 31, 1,3,8-trimethyl-5-[[(1R)-1-[3-(difluoromethyl)-2-fluoro-phenyl]ethyl]amino]imidazo[4,5-g]phthalazin-2-one], 0.00955 µM; in that of `Cc1nnc(N[C@H](C)c2cccc(C(F)(F)F)c2)c2cc3c(cc12)C(C)(C)C(=O)N3C` [Compound 32, 1,3,3,5-tetramethyl-8-[[(1R)-1-[3-(trifluoromethyl)phenyl]ethyl]amino] pyrrolo[2,3-g]phthalazin-2-one], 0.0107 µM. Turning to `Cc1nnc(N[C@H](C)c2cccc(C(F)(F)C(C)(C)O)c2F)c2cc3c(cc12)n(C)c(=O)n3C1CC1` [Compound 33, 3-cyclopropyl-1,8-dimethyl-5-[[(1R)-1-[3-(1,1-difluoro-2-hydroxy-2-methyl-propyl)-2-fluoro-phenyl]ethyl]amino]imidazo[4,5-g]phthalazin-2-one], the IC50 is 0.00977 µM. In the case of `Cc1nnc(N[C@H](C)c2cccc(C(F)F)c2F)c2cc3c(cc12)n(C)c(=O)n3C1CC1` [Compound 34, 3-cyclopropyl-1,8-dimethyl-5-[[(1R)-1-[3-(difluoromethyl)-2-fluoro-phenyl]ethyl]amino]imidazo[4,5-g]phthalazin-2-one] it was 0.00977 µM; in that of `COCCn1c(=O)n(C)c2cc3c(C)nnc(N[C@H](C)c4cccc(C(F)(F)F)c4F)c3cc21` [Compound 35, 3-(2-methoxyethyl)-1,8-dimethyl-5-[[(1R)-1-[2-fluoro-3-(trifluoromethyl)phenyl]ethyl]amino] imidazo[4,5-g]phthalazin-2-one], 0.0107 µM. In the case of `COCC(F)(F)c1cccc([C@@H](C)Nc2nnc(C)c3cc4c(cc23)n(C)c(=O)n4C)c1F` [Compound 36, 5-[[(1R)-1-[3-(1,1-difluoro-2-methoxy-ethyl)-2-fluoro-phenyl]ethyl]amino]-1,3,8-trimethyl-imidazo[4,5-g]phthalazin-2-one] it was 0.012 µM; in that of `COCCn1c(=O)n(C)c2cc3c(C)nnc(N[C@H](C)c4cccc(C(F)(F)CO)c4F)c3cc21` [Compound 37, 3-(2-methoxyethyl)-1,8-dimethyl-5-[[(1R)-1-[3-(1,1-difluoro-2-hydroxy-ethyl)-2-fluoro-phenyl]ethyl]amino]imidazo[4,5-g]phthalazin-2-one], 0.0105 µM.

Take `Cc1nnc(N[C@H](C)c2cccc(C(F)(F)F)c2F)c2cc3c(cc12)n(C)c(=O)n3C(C)C` [Compound 38, 3-isopropyl-1,8-dimethyl-5-[[(1R)-1-[2-fluoro-3-(trifluoromethyl)phenyl]ethyl]amino] imidazo[4,5-g]phthalazin-2-one]: the IC50 is 0.00759 µM. As to `Cc1c(C#N)cccc1[C@@H](C)Nc1nnc(C)c2cc3c(cc12)n(C)c(=O)n3C` [Compound 39, 2-methyl-3-[(1R)-1-[(1,3,8-trimethyl-2-oxo-imidazo[4,5-g]phthalazin-5-yl)amino]ethyl]benzonitrile], the IC50 was 0.0447 µM.

For the compound `Cc1nnc(N[C@H](C)c2cccc(C(F)(F)F)c2F)c2cc3c(cc12)n(C)c(=O)n3C` [Compound 40, 1,3,8-trimethyl-5-[[(1R)-1-[2-fluoro-3-(trifluoromethyl)phenyl]ethyl]amino]imidazo[4,5-g]phthalazin-2-one], the IC50 was 0.00891 µM.

Regarding `Cc1nnc(N[C@H](C)c2cccc(C(F)(F)CN)c2F)c2cc3c(cc12)n(C)c(=O)n3C` [Compound 41, 1,3,8-trimethyl-5-[[(1R)-1-[3-(2-amino-1,1-difluoro-ethyl)-2-fluoro-phenyl]ethyl]amino]imidazo[4,5-g]phthalazin-2-one], the IC50 is 0.0162 µM.

On to `Cc1nnc(N[C@H](C)c2cccc(C(F)(F)F)c2)c2cc3c(cc12)OCCC(=O)N3C` [Compound 42, 5,10-dimethyl-7-[[(1R)-1-[3-(trifluoromethyl)phenyl]ethyl]amino]-2,3-dihydropyridazino[4,5-h][1,5]benzoxazepin-4-one], for which the IC50 is 0.0347 µM. To `Cc1nnc(N[C@H](C)c2cccc(C(F)F)c2F)c2cc3c(cc12)n(C)c(=O)n3C(C)C` [Compound 43, 3-isopropyl-1,8-dimethyl-5-[[(1R)-1-[3-(difluoromethyl)-2-fluoro-phenyl]ethyl]amino]imidazo[4,5-g]phthalazin-2-one] belongs 0.00282 µM; to `Cc1nnc(N[C@H](C)c2cccc(C(F)F)c2F)c2cc3c(cc12)C(C)(C)C(=O)N3C` [Compound 44, 1,3,3,5-tetramethyl-8-[[(1R)-1-[3-(difluoromethyl)-2-fluoro-phenyl]ethyl]amino]pyrrolo[2,3-g]phthalazin-2-one], 0.00871 µM; to `Cc1c(C#N)cccc1[C@@H](C)Nc1nnc(C)c2cc3c(cc12)n(C(C)C)c(=O)n3C` [Compound 45, 2-methyl-3-[(1R)-1-[(3-isopropyl-1,8-dimethyl-2-oxo-imidazo[4,5-g]phthalazin-5-yl)amino]ethyl]benzonitrile], 0.00977 µM. In the case of `Cc1nnc(N[C@H](C)c2cccc(C(F)(F)C(C)(C)O)c2F)c2cc3c(cc12)C(C)(C)C(=O)N3C` [Compound 46, 1,3,3,5-tetramethyl-8-[[(1R)-1-[3-(1,1-difluoro-2-hydroxy-2-methyl-propyl)-2-fluoro-phenyl]ethyl]amino]pyrrolo[2,3-g]phthalazin-2-one] it was 0.011 µM.
